Ten compounds from patent US20260078120A1, “SUBSTITUTED PYRIDOPYRIMIDINONES” (MIRATI THERAPEUTICS, INC., priority 2022, published 2026) can be followed below.

A value given as a limit tells only on which side of the number the result lay.

Assay [1] deals with T47D (PI3Kα H1047R mutant) cells. As to the kind of experiment: CellTiter-Glo 2.0 luminescent cell viability assay, 72 hours, T47D cells. Type of assay: cell-based. Particulars: Homo sapiens, T47D, 72 h, T47D (PI3Kα H1047R mutant) cells, CellTiter-Glo, approximately 72 hours; read-out: T47D (H1047R mutant) Viability IC50. The gist of the method: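 Cells seeded at 1000 per well overnight were dosed with a 10-concentration, 1:4 series starting at 10 µM and incubated ~72 h at 37° C. Viability was read by CellTiter-Glo 2.0 luminescence after 30 min at room temperature. IC50 came from four-parameter fits of percent vehicle control.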
For orientation: ATP-based viability assays read luminescence as a measure of living cells.

In assay [2] the test system is SKBR3 (PI3Kα wild type) cells. As to the kind of experiment: CellTiter-Glo 2.0 luminescent cell viability assay, 72 hours, SKBR3 cells. Particulars: Homo sapiens, SK-BR-3, 72 h, SKBR3 (PI3Kα wild type) cells, CellTiter-Glo, approximately 72 hours; read-out: SKBR3 (WT) Viability IC50. Type of assay: cell-based. The gist of the method:
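Viability measured via CTG luminescence following roughly 72 hours of compound exposure at 37° C. Dosing used a 10 um starting concentration diluted 1:4 over 10 points; percent-of-vehicle data fitted with a variable-slope four-parameter model for IC50.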

One may read the IC50 as the concentration that inhibits the measured activity by half. For `Cc1cc([C@@H](C)Nc2ccccc2C(=O)O)c2nc(N3Cc4nccnc4C3)c(C#N)c(=O)n2c1` [Example 11-137, (R)-2-((1-(3-cyano-2-(5,7-dihydro-6H-pyrrolo[3,4-b]pyrazin-6-yl)-7-methyl-4-oxo-4H-pyrido[1,2-a]pyrimidin-9-yl)ethyl)amino)benzoic acid], the figures for the IC50 in assay [1] and in assay [2] were 0.688 µM and over 10 µM, respectively.

Regarding `Cc1cc([C@@H](C)Nc2ccccc2C(=O)O)c2nc(N3Cc4nccnc4C3)c(C)c(=O)n2c1` [Example 11-138, (R)-2-((1-(2-(5,7-dihydro-6H-pyrrolo[3,4-b]pyrazin-6-yl)-3,7-dimethyl-4-oxo-4H-pyrido[1,2-a]pyrimidin-9-yl)ethyl)amino)benzoic acid], the IC50 was 0.392 µM in assay [1] and over 10 µM in assay [2].

For the compound `Cc1cc([C@@H](C)Nc2ccc(Cl)nc2C(=O)O)c2nc(N3Cc4nccnc4C3)c(C)c(=O)n2c1` [Example 11-139, (R)-6-chloro-3-((1-(2-(5,7-dihydro-6H-pyrrolo[3,4-b]pyrazin-6-yl)-3,7-dimethyl-4-oxo-4H-pyrido[1,2-a]pyrimidin-9-yl)ethyl)amino)picolinic acid], the IC50 in assay [1] was 0.272 µM; in assay [2], over 10 µM.

In the case of `Cc1cc([C@@H](C)Nc2ccccc2C(=O)O)c2nc(N3CCC(F)(F)C3)c(C)c(=O)n2c1` [Example 11-140, (R)-2-((1-(2-(3,3-difluoropyrrolidin-1-yl)-3,7-dimethyl-4-oxo-4H-pyrido[1,2-a]pyrimidin-9-yl)ethyl)amino)benzoic acid], the figures for the IC50 in assay [1] and in assay [2] were 0.119 µM and over 10 µM, respectively.

Consider `Cc1cc([C@@H](C)Nc2ccncc2C(=O)O)c2nc(N3CCC(F)(F)CC3)c(C#N)c(=O)n2c1` [Example 11-142, (R)-4-((1-(3-cyano-2-(4,4-difluoropiperidin-1-yl)-7-methyl-4-oxo-4H-pyrido[1,2-a]pyrimidin-9-yl)ethyl)amino)nicotinic acid], for which the IC50 in assay [1] and in assay [2] was over 10 µM throughout.

For `Cc1cc([C@@H](C)Nc2ccc(Cl)nc2C(=O)O)c2nc(N3CC4C(C3)C4(F)F)c(C#N)c(=O)n2c1` (stereo partly drawn) [Example 11-143, 6-chloro-3-(((1R)-1-(3-cyano-2-(6,6-difluoro-3-azabicyclo[3.1.0]hexan-3-yl)-7-methyl-4-oxo-4H-pyrido[1,2-a]pyrimidin-9-yl)ethyl)amino)picolinic acid], the results for the IC50 in assay [1] and in assay [2] were 0.795 µM and over 10 µM, respectively.

As for `Cc1cc([C@@H](C)Nc2ccnnc2)c2nc(N3CCC(F)(F)CC3)c(C#N)c(=O)n2c1` [Example 11-145, (R)-2-(4,4-difluoropiperidin-1-yl)-7-methyl-4-oxo-9-(1-(pyridazin-4-ylamino)ethyl)-4H-pyrido[1,2-a]pyrimidine-3-carbonitrile], the IC50 in assay [1] and in assay [2] was over 10 µM throughout.

For `Cc1cc([C@@H](C)Nc2ccnnc2C(=O)O)c2nc(N3CCC(F)(F)CC3)c(C#N)c(=O)n2c1` [Example 11-146, (R)-4-((1-(3-cyano-2-(4,4-difluoropiperidin-1-yl)-7-methyl-4-oxo-4H-pyrido[1,2-a]pyrimidin-9-yl)ethyl)amino)pyridazine-3-carboxylic acid], the IC50 in assay [1] and in assay [2] was over 10 µM each time.

As to `Cc1cc([C@@H](C)Nc2ccc(Cl)nc2C(=O)O)c2nc(N3Cc4ccncc4C3)c(C#N)c(=O)n2c1` [Example 11-147, (R)-6-chloro-3-((1-(3-cyano-2-(1,3-dihydro-2H-pyrrolo[3,4-c]pyridin-2-yl)-7-methyl-4-oxo-4H-pyrido[1,2-a]pyrimidin-9-yl)ethyl)amino)picolinic acid], the results for the IC50 in assay [1] and in assay [2] were 1.04 µM and over 10 µM, respectively.

As for `Cc1cc([C@@H](C)Nc2ccccc2C(=O)O)c2nc(C3=CCN(C)CC3)c(C)c(=O)n2c1` [Example 11-148, (R)-2-((1-(3,7-dimethyl-2-(1-methyl-1,2,3,6-tetrahydropyridin-4-yl)-4-oxo-4H-pyrido[1,2-a]pyrimidin-9-yl)ethyl)amino)benzoic acid], the IC50 was 1.19 µM in assay [1] and over 10 µM in assay [2].
